The values below come from patent US7049116B2, “Engineered protein kinases which can utilize modified nucleotide triphosphate substrates” (Princeton University, priority 1997, dated 2006).

Assay [1] deals with T1, GST-XD4 (V323A, I338A) (Rous sarcoma virus subgroup A, UniProt P00524, DEL77-225/I338A/V323A).
T1 construct: contains an intact SH1 catalytic domain but lacks the non-catalytic regulatory SH3 and SH2 domains; made in house; host or cells: E. coli DH5α (pGEX-KT)
The format is biochemical. To be noted: GST-XD4 (V323A, I338A), 1 mM RR-Src, 37° C., pH 8.0. As to the method: (§1) Kinetic constants were determined by analysis of Lineweaver-Burk plots of the rate data (64). […] ATP (1000 cpm/pmol) or [γ-^32P] N^6(cyclopentyl)ATP (5000 cpm/pmol) as indicated.

In assay [2] the test system is GST-XD4 (V323A, I338A). The format is biochemical, Rous sarcoma virus. On the procedure: as §1
The target in assay [3] is T2, GST-XD4 (I338A) (Rous sarcoma virus subgroup A, UniProt P00524, DEL77-225/I338A).
T2 construct: made in house
In words: Autophosphorylation of single mutation v-Src mutants. To be noted: mutant with alanine at position 338. Format: biochemical. The text has this:
(§2) However, these had only single mutations, at position 338. These were again expressed as GST-XD4 fusion proteins.
(§3) The panels on the right side of FIG. 7 tell an even more interesting story.

For assay [4], the target named is T3, GST-XD4 (Rous sarcoma virus subgroup A, UniProt P00524, DEL77-225).
T3 construct: contains an intact SH1 catalytic domain but lacks the non-catalytic regulatory SH3 and SH2 domains; made in house; host or cells: E. coli DH5α (pGEX-KT)
Format: biochemical. As to the method: as §1

Assay [5] deals with tyrosine kinases of murine lymphocyte cell lysate (CF). In words: Screening of nucleotide analogs in murine lymphocyte lysate, anti-phosphotyrosine immunoblot. Format: biochemical. To be noted: 100 μM nucleotide triphosphate, 37° C., five minutes. As to the method:
To identify compounds that would not be accepted as substrates by any existing cellular kinases (53), Applicant screened a panel of synthetic A^*TP analogs in a murine lymphocyte lysate (CF) rich in protein tyrosine kinases (13).
The assays were performed using spleenocytes (8-30 week old male and female C57/B6 mice from the Princeton University Animal Facility) which were isolated and washed in RPMI-1640 medium containing 5% Bovine Calf Serum (BCS), 1% Hepes and DNaseI (1 μg/ml). Red cells were lysed at 4° C. by treatment with 17 mM Tris ammonium chloride (pH 7.2). The cells were hypotonically lysed on ice for ten minutes in 1 mM Hepes (pH 7.4), 5 mM MgCl2, leupeptin (10 μg/ml), aprotinin (10 μg /ml) and 100 μM PMSF according to the method of Fukazawa et al. (51). After vortexing and centrifugation at 500 × g, the supernatant was collected. Cells were stored at 4° C. for twenty minutes to attenuate the basal protein phosphorylation level, after which the buffer was adjusted to 20 mM Hepes (pH 7.4), 10 mM MgCl2 and 1 mM NaF. Sodium vanadate (100 μM) was then added to inhibit the activity of phosphotyrosine phosphatases.
Each nucleotide triphosphate was added to a final concentration of 100 μM to 5×10^6 cell equivalents and incubated at 37° C. for five minutes after which 4 × Laemmli gel loading buffer was added to the cell lysate to quench the reaction. Proteins were separated by 12.5% SDS-PAGE and transferred to Protran BA85 (Schleicher-Schuell). The blot was probed with the anti-phosphotyrosine monoclonal antibody 4G10 (Upstate Biotechnology) and the bound antibody was detected via enhanced chemiluminescence (Pierce) following treatment with HRP-coupled goat anti-mouse antibody (VWR catalog #710133) according to the manufacturer's instructions.
The cell lysate used includes the tyrosine kinases Src, Fyn, Lck, Lyn, Yes, Fgr, Hck, Zap, Syk, Btk, Blk, and other tyrosine kinases present in B and T lymphocytes, macrophages, and follicular dendritic cells (13). Molecular size standards (in kilodaltons) arc indicated.

In assay [6] the target is T4, I338G v-Src (Rous sarcoma virus subgroup A, UniProt P00524, DEL77-225/I338G).
T4 construct: made in house; host or cells: E. coli DH5α (pGEX-KT)
As to the kind of experiment: biochemical.

For assay [7], the target named is T5, WT Fyn (Homo sapiens, UniProt P06241).
T5 construct: GST; made in house; host or cells: E. coli DH5α (pGEX-KT)
As to the kind of experiment: In vitro kinase inhibition assay. The format is biochemical. The arrangement: inhibition of Fyn: dose or concentration left out as unconfirmed.

Assay [8] concerns GST-XD4 (V323A, I338A). To be noted: 100 μM analog, 10 μM [γ-32P]ATP.
Assay [9] addresses T6, GST-XD4 (I338S) (Rous sarcoma virus subgroup A, UniProt P00524, DEL77-225/I338S).
T6 construct: made in house
In words: Autophosphorylation of single mutation v-Src mutants. The format is biochemical. To be noted: mutant with serine at position 338.
Source text: as §2, §3

For assay [10], the target named is T7, GST-XD4 (I338G) (Rous sarcoma virus subgroup A, UniProt P00524, DEL77-225/I338G).
T7 construct: made in house; host or cells: E. coli DH5α (pGEX-KT)
The assay is described as above. The format is biochemical. To be noted: mutant with glycine at position 338.
Source text: as §2, §3

For assay [11], the target named is T1, GST-XD4 (V323A, I338A). As to the kind of experiment: Autophosphorylation autoradiogram. Format: biochemical. To be noted: FIG. 5C lane 4. The text has this:
(§4) It is even more significant that the new substrate, [γ-^32P]

Assay [12] addresses T3, GST-XD4. As to the kind of experiment: Autophosphorylation autoradiogram. The format is biochemical. To be noted: GST-XD4, FIG. 5C lane 3.
Source text: as §4

Assay [13] deals with wild-type cellular kinases of murine lymphocyte lysates. As to the kind of experiment: In vitro kinase reactions with radiolabeled nucleotide in murine lymphocyte lysates. The format is biochemical. To be noted: 100 μM radiolabeled nucleotide, 37° C., ten minutes.
In assay [14] the test system is PDGFR. To be noted: cited from earlier work.
Assay [15] deals with T5, WT Fyn. To be noted: published parent molecule; cited from earlier work.

“Also recorded” adds a separate entry of the source.

T5 sequence (P06241 1-534 isoform P06241-2): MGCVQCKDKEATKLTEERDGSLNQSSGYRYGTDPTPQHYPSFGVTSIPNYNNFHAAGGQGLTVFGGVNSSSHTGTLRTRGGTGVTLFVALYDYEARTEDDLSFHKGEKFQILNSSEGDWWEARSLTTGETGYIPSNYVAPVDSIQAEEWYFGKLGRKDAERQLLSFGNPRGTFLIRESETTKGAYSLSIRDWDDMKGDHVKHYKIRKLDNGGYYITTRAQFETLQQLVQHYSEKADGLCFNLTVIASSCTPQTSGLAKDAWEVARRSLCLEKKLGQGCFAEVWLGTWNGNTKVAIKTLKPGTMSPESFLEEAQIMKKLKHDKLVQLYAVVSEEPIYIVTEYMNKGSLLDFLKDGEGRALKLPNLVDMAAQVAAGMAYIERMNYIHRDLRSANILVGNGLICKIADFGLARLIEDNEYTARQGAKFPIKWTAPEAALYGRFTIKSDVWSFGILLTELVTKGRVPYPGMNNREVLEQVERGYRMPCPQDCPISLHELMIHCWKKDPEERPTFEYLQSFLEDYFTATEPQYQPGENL

With `Nc1ncnc2c1ncn2[C@@H]1O[C@H](COP(=O)(O)OP(=O)(O)OP(=O)(O)O)[C@@H](O)[C@H]1O` [ATP, adenosine triphosphate, reference compound], the kcat in assay [1] stood at 0.013 ± 0.0033 s⁻¹; in [4] (GST-XD4, 1 mM RR-Src, 37° C., pH 8.0) it was 0.033 ± 0.0083 s⁻¹. The “KM of the mutant for ATP relative to KM of GST-XD4 for ATP” value in [2] (higher in mutant) is reported as “more than 10 fold”. Besides, the “utilization as phosphate donor substrate (autophosphorylation)” value in assay [3] is “more readily than the mutant with serine; also recorded: better able to use ATP as a substrate than is the mutant with glycine”.

As to `CONc1ncnc2c1ncn2[C@@H]1O[C@H](COP(=O)(O)OP(=O)(O)OP(=O)(O)O)[C@@H](O)[C@H]1O` [Analog 1, N^6(methoxy)ATP], in assay [5], the “level of protein tyrosine phosphorylation (ability to serve as cellular tyrosine kinase substrate)” value (“level” below) is on record as “some ability to serve as cellular tyrosine kinase substrates”.

In the case of `CCONc1ncnc2c1ncn2[C@@H]1O[C@H](COP(=O)(O)OP(=O)(O)OP(=O)(O)O)[C@@H](O)[C@H]1O` [Analog 2, N^6(ethoxy)ATP], the “level” value in [5] is given as “some ability to serve as cellular tyrosine kinase substrates”.

As for `CC(=O)Nc1ncnc2c1ncn2[C@@H]1O[C@H](COP(=O)(O)OP(=O)(O)OP(=O)(O)O)[C@@H](O)[C@H]1O` [Analog 3, N^6(acetyl)ATP], the “level” value in assay [5] is on record as “some ability to serve as cellular tyrosine kinase substrates”.

For the compound `CC(C)ONc1ncnc2c1ncn2[C@@H]1O[C@H](COP(=O)(O)OP(=O)(O)OP(=O)(O)O)[C@@H](O)[C@H]1O` [Analog 4, N^6(i-propoxy)ATP], in assay [5], the “level” value is on record as “little or no protein phosphorylation”.

On to `CC(C)(C)n1nc(-c2ccccc2)c2c(NCC3CCCC3)ncnc21` [Analog 4b, 4-cyclopentylmethylamino-1-tert-butyl-3-phenylpyrazolo[3,4-d]pyrimidine], for which, in [6], the “inhibition of I338G v-Src (in words)” value is reported as “only poor to moderate inhibition”. In addition, the “inhibition of WT Fyn (in words)” value in [7] was “sufficiently orthogonal”.

For `CC(C)(C)n1nc(-c2ccccc2)c2c(NCc3ccco3)ncnc21` [Analog 4d, 4-2′-furylmethylamino-1-tert-butyl-3-phenylpyrazolol[3,4-d]pyrimidine], the “inhibition of I338G v-Src (in words)” value in [6] was “only poor to moderate inhibition”. Further, the “inhibition of WT Fyn (in words)” value in assay [7] is given as “sufficiently orthogonal”.

With `CC(C)(C)n1nc(-c2ccccc2)c2c(NCc3ccccc3)ncnc21` [Analog 4e, 4-benzylamino-1-tert-buty-3-phenylpyrazolo[3,4-d]pyrimidine], in assay [6], the “inhibition of I338G v-Src (in words)” value was “only poor to moderate inhibition”. In [7], the “inhibition of WT Fyn (in words)” value was “sufficiently orthogonal”.

For `O=P(O)(O)OP(=O)(O)OP(=O)(O)OC[C@H]1O[C@@H](n2cnc3c(NCc4ccccc4)ncnc32)[C@H](O)[C@@H]1O` [Analog 5, N^6(benzyl)ATP], the “level” value in [5] is listed as “little or no protein phosphorylation”. In assay [8], the “relative inhibition of GST-XD4 (V323A, I338A) catalyzed RR-Src phosphorylation” value (shortened to “relative inhibition of GST-XD4”) is given as “almost as well as the wild-type kinase”.

Turning to `O=P(O)(O)OP(=O)(O)OP(=O)(O)OC[C@H]1O[C@@H](n2cnc3c(NOCc4ccccc4)ncnc32)[C@H](O)[C@@H]1O` [Analog 6, N^6(benzyloxy)ATP], in assay [5], the “level” value was “little or no protein phosphorylation”.

As for `O=P(O)(O)OP(=O)(O)OP(=O)(O)OCC1OC(n2cnc3c(NC4CCCC4)ncnc32)C(O)C1O` (centres unmarked) [Analog 8, N^6(cyclopentyl)ATP], the kcat in assay [1] was 0.00083 ± 0.00033 s⁻¹. Also, the “kcat/KM of mutant with orthogonal substrate relative to kcat/KM of wild-type kinase with ATP” value in [2] (lower than wild-type with ATP) stood at 50 fold. For the same compound, the “utilization as phosphate donor substrate (autophosphorylation)” value is recorded as “not able to utilize N6(cyclopentyl)ATP nearly as well as is the mutant with alanine” in assay [9] and “better able to use N^6(cyclopentyl)ATP as substrate than is the mutant with alanine” in assay [10]. In addition, the “use as phosphodonor for autophosphorylation” value in assay [11] is “efficiently autophosphorylated”; in assay [12], “apparent complete inability”. Besides, in [5], the “level” value is on record as “slightly lower level of phosphorylation with wild-type kinases”. In addition, the “radiolabeled phosphoproteins in cell lysate” value in assay [13] is reported as “no radiolabeled phosphoproteins”. For the same compound, in [4] (wild-type GST-XD4), the “phosphorylation of RR-Src peptide with the nucleotide as phosphate donor” value is given as “did not substantially phosphorylate”. The “relative inhibition of GST-XD4” value in [8] is given as “almost as well as the wild-type kinase”.

In the case of `O=P(O)(O)OP(=O)(O)OP(=O)(O)OC[C@H]1O[C@@H](n2cnc3c(NOC4CCCC4)ncnc32)[C@H](O)[C@@H]1O` [Analog 9, N^6(cyclopentyloxy)ATP], the “relative inhibition of GST-XD4” value in [8] is given as “almost as well as the wild-type kinase”.

In the case of `O=P(O)(O)OP(=O)(O)OP(=O)(O)OC[C@H]1O[C@@H](n2cnc3c(NC4CCCCC4)ncnc32)[C@H](O)[C@@H]1O` [Analog 11, N^6(cyclohexyl)ATP], in [8], the “relative inhibition of GST-XD4” value was “almost as well as the wild-type kinase”.

As for `Cc1ccc(NC(=O)c2ccc(CN3CCN(C)CC3)cc2)cc1Nc1nccc(-c2cccnc2)n1` [CGP 57148], the IC50 in assay [14] is […].

In the case of `OCC1OC(n2cnc3c(NOC4CCCC4)ncnc32)C(O)C1O` (centres unmarked) [N^6 cyclopentyloxyadenosine], the “inhibition of Fyn” value in [7] (concentrations up) was “no detectable in vitro inhibition”.

With `Cc1ccc(-c2nn(C(C)(C)C)c3ncnc(N)c23)cc1` [PPI, 4-amino-1-tert-butyl-3-(p-methylphenyl)pyrazolo(3,4-d)pyrimidine], in assay [15], the “inhibition of Fyn (in words)” value is on record as “highly potent (low nM)”.
